Source: PubChem BioAssay (NCI)
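A five-concentration, 48-hour dose response in 96-well plates underlies each endpoint, interpolated linearly between surrounding concentrations. TGI marks complete inhibition of growth.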 *1 amine or outer side, *2 acyl side, *3 side chain or, on linkers, in order; H or OH if unused. Where a SMILES comes first, the peptide text is derived from it. Bridges are numbered along the chain shown (N, C = ends). [ ]: non-standard residue; d: D form. X59 = COc1c(N[*:1])cccc1C(=O)O[C@H](C(=O)[C@H](C)C(=O)[*:2])C(C)C; X58 = CC(C)C[C@H](C(=O)[*:2])C(C)C(=O)C1CCCN1[*:1]; NMeY = CN[C@@H](Cc1ccc(O)cc1)C(=O)O; Lac = C[C@H](O)C(=O)O

Assays:
Test in all cases: inhibition of tumour cell growth, NCI panel, 48 h
MOLT-4 leukemia = system: MOLT-4 leukemia
MDA-MB-231 breast = system: MDA-MB-231 breast
MDA-N = system: MDA-N
CAKI-1 renal = system: CAKI-1 renal
HT29 colon = system: HT29 colon
SF-539 CNS = system: SF-539 CNS
UACC-257 melanoma = system: UACC-257 melanoma
PC-3 prostate = system: PC-3 prostate
SK-MEL-28 melanoma = system: SK-MEL-28 melanoma
HOP-62 NSCLC = system: HOP-62 NSCLC
SK-MEL-5 melanoma = system: SK-MEL-5 melanoma
HL-60(TB) leukemia = system: HL-60(TB) leukemia

Cn1c(-c2cccs2)cc(-c2ccsc2)c1-c1cccs1
TGI (MOLT-4 leukemia): > 100 µM | TGI (MDA-MB-231 breast): > 100 µM | TGI (MDA-N): > 100 µM | TGI (CAKI-1 renal): > 100 µM | TGI (HT29 colon): > 100 µM | TGI (SF-539 CNS): > 100 µM | TGI (UACC-257 melanoma): > 100 µM | TGI (PC-3 prostate): > 100 µM | TGI (SK-MEL-28 melanoma): > 100 µM | TGI (HOP-62 NSCLC): > 100 µM

CC1(C)CC2C(/C1=N/O)C1(C)CCCC2(C)C1O (configuration not stated)
TGI (MOLT-4 leukemia): > 100 µM | TGI (SK-MEL-5 melanoma): > 100 µM | TGI (MDA-N): > 100 µM | TGI (CAKI-1 renal): > 100 µM | TGI (HT29 colon): > 100 µM | TGI (UACC-257 melanoma): > 100 µM | TGI (PC-3 prostate): > 100 µM | TGI (SK-MEL-28 melanoma): > 100 µM | TGI (HOP-62 NSCLC): > 100 µM | TGI (HL-60(TB) leukemia): > 100 µM

CN(C)CCN=C1Nc2ccccc2C(=O)N2CSCC12 (configuration not stated)
TGI (MOLT-4 leukemia): > 100 µM | TGI (SK-MEL-5 melanoma): > 100 µM | TGI (MDA-MB-231 breast): > 100 µM | TGI (MDA-N): > 100 µM | TGI (CAKI-1 renal): > 100 µM | TGI (HT29 colon): > 100 µM | TGI (UACC-257 melanoma): > 100 µM | TGI (PC-3 prostate): > 100 µM | TGI (SK-MEL-28 melanoma): > 100 µM | TGI (HOP-62 NSCLC): > 100 µM

CCOC(=O)C1=C(C)N(NC(=O)OC)C2(N)N(NC(=O)OC)C(C)=C(C(=O)OCC)C12C#N (configuration not stated)
TGI (MOLT-4 leukemia): > 100 µM | TGI (SK-MEL-5 melanoma): > 100 µM | TGI (CAKI-1 renal): > 100 µM | TGI (HT29 colon): > 100 µM | TGI (SF-539 CNS): > 100 µM | TGI (UACC-257 melanoma): > 100 µM | TGI (SK-MEL-28 melanoma): > 100 µM | TGI (HOP-62 NSCLC): > 100 µM | TGI (HL-60(TB) leukemia): > 100 µM

COc1ccc(C[C@H]2C(=O)O[C@H](C)[C@H](NC(=O)[C@@H](CC(C)C)C(C)C(=O)C3CCCN3C(=O)[C@H](C)O)C(=O)Nc3cccc(c3OC)C(=O)O[C@@H](C(C)C)C(=O)[C@H](C)C(=O)N[C@@H](CC(C)C)C(=O)N3CCC[C@H]3C(=O)N2C)cc1 (some centres not stated) (H-[Lac][X58]T[X59]LP[NMeY](Me); ester 3-C)
TGI (MOLT-4 leukemia): > 12.5 µM | TGI (SK-MEL-5 melanoma): > 12.5 µM | TGI (MDA-MB-231 breast): > 12.5 µM | TGI (MDA-N): > 12.5 µM | TGI (CAKI-1 renal): > 12.5 µM | TGI (HT29 colon): > 12.5 µM | TGI (SF-539 CNS): > 12.5 µM | TGI (UACC-257 melanoma): > 12.5 µM | TGI (PC-3 prostate): > 12.5 µM | TGI (SK-MEL-28 melanoma): > 12.5 µM | TGI (HOP-62 NSCLC): > 12.5 µM

Cc1nnc2n1N=C(c1ccc(-c3ccc([N+](=O)[O-])cc3)o1)CS2
TGI (MOLT-4 leukemia): > 100 µM | TGI (CAKI-1 renal): > 100 µM | TGI (SF-539 CNS): > 100 µM | TGI (UACC-257 melanoma): > 100 µM | TGI (SK-MEL-28 melanoma): > 100 µM | TGI (HOP-62 NSCLC): > 100 µM | TGI (HL-60(TB) leukemia): > 100 µM

C/C(CC(=O)Nc1ccccc1)=N\NC(N)=S
TGI (MOLT-4 leukemia): > 100 µM | TGI (SK-MEL-5 melanoma): > 100 µM | TGI (HT29 colon): > 100 µM | TGI (SF-539 CNS): > 100 µM | TGI (UACC-257 melanoma): > 100 µM | TGI (SK-MEL-28 melanoma): > 100 µM | TGI (HOP-62 NSCLC): > 100 µM | TGI (HL-60(TB) leukemia): > 100 µM

C/C(=C(/C)c1cc[n+](C)cc1)c1cc[n+](C)cc1
TGI (MOLT-4 leukemia): > 75 µM | TGI (SK-MEL-5 melanoma): > 75 µM | TGI (CAKI-1 renal): > 75 µM | TGI (HT29 colon): > 75 µM | TGI (SF-539 CNS): > 75 µM | TGI (UACC-257 melanoma): > 75 µM | TGI (SK-MEL-28 melanoma): > 75 µM | TGI (HOP-62 NSCLC): > 75 µM | TGI (HL-60(TB) leukemia): > 75 µM

COc1cc(/C=C2\CC(C)C/C(=C\c3ccc(O)c(OC)c3)C2=O)ccc1O (configuration not stated)
TGI (MOLT-4 leukemia): 17.8 µM | TGI (SK-MEL-5 melanoma): 4.52 µM | TGI (MDA-MB-231 breast): 8.35 µM | TGI (MDA-N): 7.37 µM | TGI (HT29 colon): 20.1 µM | TGI (SF-539 CNS): > 23.7 µM | TGI (UACC-257 melanoma): 9.08 µM | TGI (PC-3 prostate): 20.5 µM | TGI (SK-MEL-28 melanoma): 8.95 µM | TGI (HOP-62 NSCLC): 9.11 µM | TGI (HL-60(TB) leukemia): > 30.6 µM

O=[N+]([O-])c1cc2ccc1OCc1cccc(n1)COc1ccc(cc1[N+](=O)[O-])C=NCCCCCCCCN=C2
TGI (MOLT-4 leukemia): > 100 µM | TGI (SK-MEL-5 melanoma): > 100 µM | TGI (MDA-MB-231 breast): > 100 µM | TGI (MDA-N): > 100 µM | TGI (CAKI-1 renal): > 100 µM | TGI (HT29 colon): > 100 µM | TGI (SF-539 CNS): > 100 µM | TGI (UACC-257 melanoma): > 100 µM | TGI (PC-3 prostate): > 100 µM | TGI (SK-MEL-28 melanoma): > 100 µM | TGI (HOP-62 NSCLC): > 100 µM

CC(C)(C)OC(=O)NC(Cc1ccc(OCc2ccccc2)cn1)C(=O)O (configuration not stated)
TGI (SK-MEL-5 melanoma): > 100 µM | TGI (MDA-MB-231 breast): > 100 µM | TGI (MDA-N): > 100 µM | TGI (CAKI-1 renal): > 100 µM | TGI (HT29 colon): > 100 µM | TGI (SF-539 CNS): > 100 µM | TGI (UACC-257 melanoma): > 100 µM | TGI (PC-3 prostate): > 100 µM | TGI (SK-MEL-28 melanoma): > 100 µM | TGI (HOP-62 NSCLC): > 100 µM | TGI (HL-60(TB) leukemia): > 100 µM
